Reference: patent US20110318273A1, “FLUORESCENT CONTRAST AGENTS” (GE HEALTHCARE AS, priority 2004, published 2011)

Columns and labels:
[1] = Oxidation of reduced rhodamine 110 by hydrogen peroxide, increase in fluorescence; conditions: hydrogen peroxide 10 μM final; emission 538 nm, excitation 485 nm
Protocol: Rhodamine 110 was reduced as in Example 2. Hydrogen peroxide to a final concentration of 10 μM was added to a portion of the solution of reduced rhodamin 110, i.e. to dihydrorhodamin 110, and the increase in fluorescence was recorded at 538 nm (excitation at 485 nm) on a Thermo Fluoroscan Ascent FL fluorimeter.

[2] = Absorption spectrum of the reduced fluorochrome in phosphate-buffered saline (diode array spectrophotometer); assay type: physicochemical; conditions: for absorption in the visible region: reduced with sodium borohydride, diluted in phosphate-buffered saline, pH 7.4
Protocol: (§1) To 2 ml of a 1 mM solution of rhodamine 800 (Fluke, prod. No. 83701) in 0.1 M borate buffer, pH 8.5 was added approximately 5 mg of sodium borohydride. The mixture was shaken and left at room temperature for two hours. 40 microliters of the reduced solution was added to 960 μl of phosphate-buffered saline, pH 7.4. […] The spectrum of untreated rhodamine 800 (solid line) was recorded by exactly the same procedure. The sample of diluted, reduced fluorochrome was gently oxidized in air and its spectrum recorded (dashed line).
(§2) To 2 ml of a 1 mM solution of rhodamine 110 (Fluka, prod. No. 83695) in 0.1 M borate buffer, pH 8.5 was added approximately 5 mg of sodium borohydride. The mixture was shaken and left at room temperature for two hours. 40 microliters of the reduced solution was added to 960 μl of phosphate-buffered saline, pH 7.4. […] The spectrum of untreated rhodamine 110 (solid line) was recorded by exactly the same procedure. The sample of diluted, reduced fluorochrome was gently oxidized in air and its spectrum recorded (dashed line).
(§3) To 2 ml of a 1 mM solution of fluorescein (Sigma, prod. No. F-6377) in 0.1 M borate buffer, pH 8.5 was added approximately 5 mg of sodium borohydride. The mixture was shaken and left at room temperature for two hours. 40 microliters of the reduced solution was added to 960 μl of phosphate-buffered saline, pH 7.4. […] The spectrum of untreated fluorescein (solid line) was recorded by exactly the same procedure. The sample of diluted, reduced fluorochrome was gently oxidized in air and its spectrum recorded (dashed line).

[3] = Re-oxidation of the diluted, reduced fluorochrome in air, spectrum recorded; assay type: physicochemical; conditions: gently oxidized in air
Protocol: as §1, §2, §3

| Compound | oxidation by hydrogen peroxide (increase in fluorescence) [1] | fluorescence following exposure to visible light [2] | absorption in the visible region [2] | optical properties after oxidation of the reduced fluorochrome [3] |
| --- | --- | --- | --- | --- |
| Nc1ccc2c(c1)Oc1cc(N)ccc1C2c1ccccc1C(=O)O [dihydro-rhodamine 110] | rapidly oxidised | very little fluorescence | virtually no absorption in the visible region | regaining its optical properties |
| N#CC1c2cc3c4c(c2Oc2c1cc1c5c2CCCN5CCC1)CCCN4CCC3 [dihydro-rhodamine 800] | – | no fluorescence | losing nearly all absorption in the visible region | regaining its optical properties |
| O=C(O)c1ccccc1C1c2ccc(O)cc2Oc2cc(O)ccc21 [dihydrofluorescein] | – | no fluorescence | losing nearly all absorption in the visible region | regaining its optical properties |
